Data from patent US20230167505A1, “CIRCULATING TUMOR DNA AS A BIOMARKER FOR LEUKEMIA TREATMENT” (Cardiff Oncology, Inc., priority 2020, published 2023).

Assays:
[1] = system: phosphorylation of the PLK1 substrate, TCTP; assay: Plasma inhibitory activity assay (pTCTP/TCTP in HL-60 cells incubated with patient plasma); format: cell-based
Description: Plasma inhibitory activity assay: Onvansertib plasma inhibitory activity was assessed by measuring changes in the phosphorylation of the PLK1 substrate, TCTP, as described previously for FLT3 inhibitors. HL-60 cell line used for this assay was obtained from the ATCC and cultured in Iscove's modified Dulbecco's medium supplemented with 20% FBS. The cell line was not tested for Mycoplasma. Briefly, 3×10^6 HL-60 cells (passage 2-5) were incubated with 1 mL of patient plasma at 37° C. for 1 hour. Cells were washed, lysed, and changes in phosphorylated TCTP (pTCTP)/TCTP were assessed by immunoblot. […] For each dose level, 3-4 patients were analyzed (a total of 18 patients) on the basis of the availability of plasma samples, and each dose level included at least 1 patient of each arm (LDAC/decitabine). For each patient, pTCTP/TCTP level was quantified in cells incubated with plasma collected on day 1 at predose and postdose (tmax) and normalized to day 1 predose sample to measure the % pTCTP inhibition by onvansertib-containing plasma.
Protein extract preparation and immunoblot: Protein extracts were prepared from PBMCs isolated from CellSave tube and from HL-60 cells using M-PER buffer with Protease and Phosphatase Inhibitor Cocktails (Thermo Fisher Scientific). Protein concentration was measured with the Pierce BCA Protein Assay Kit (Thermo Fisher Scientific). […]

R/R AML = assay: Phase 2 anti-leukemic activity, onvansertib with decitabine; format: in vivo, human; details: Phase 2, onvansertib 60 mg/m^2 + decitabine
PLK1 = PLK1 (Homo sapiens, UniProt P53350); details: panel of 296 kinases, including other PLK members; cited from earlier work
Chain of PLK1 (P53350 whole entry): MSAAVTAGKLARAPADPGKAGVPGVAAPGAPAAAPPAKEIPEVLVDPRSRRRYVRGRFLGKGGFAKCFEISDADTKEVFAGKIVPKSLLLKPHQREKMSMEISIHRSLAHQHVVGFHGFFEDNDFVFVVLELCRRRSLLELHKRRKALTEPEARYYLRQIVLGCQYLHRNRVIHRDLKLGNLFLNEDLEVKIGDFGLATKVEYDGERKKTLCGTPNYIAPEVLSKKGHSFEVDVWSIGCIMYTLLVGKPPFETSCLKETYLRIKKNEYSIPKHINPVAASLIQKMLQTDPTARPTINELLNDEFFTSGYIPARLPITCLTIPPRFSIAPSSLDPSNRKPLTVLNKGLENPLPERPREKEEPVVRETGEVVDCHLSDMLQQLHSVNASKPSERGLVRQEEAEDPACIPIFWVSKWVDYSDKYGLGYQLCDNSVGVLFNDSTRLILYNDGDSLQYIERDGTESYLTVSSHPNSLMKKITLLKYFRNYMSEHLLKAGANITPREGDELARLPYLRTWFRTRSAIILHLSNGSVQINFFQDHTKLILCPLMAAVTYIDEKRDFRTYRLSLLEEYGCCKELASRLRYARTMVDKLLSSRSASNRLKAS

CN1CCN(c2ccc(OC(F)(F)F)c(Nc3ncc4c(n3)-c3c(c(C(N)=O)nn3CCO)CC4)c2)CC1 [onvansertib, 1-(2-hydroxyethyl)-8-{[5-(4-methylpiperazin-1-yl)-2-(trifluoromethoxy)phenyl]amino}-4,5-dihydro-1H-pyrazolo [4,3-h] quinazoline-3-carboxamide]
pTCTP inhibition by patient plasma versus dose ([1]; plasma from all dose levels (12-60 mg/m^2)): greater pTCTP inhibition at higher doses | pTCTP in HL-60 cells incubated with on-treatment plasma ([1]; plasma of days 1 and 5, not with day 22 plasma (undetectable onvansertib)): reduced | CR/CRi rate (R/R AML): 17% | specificity for PLK1 (PLK1): high specificity
